Drawing on patent publication US6693132B2, “Methods for using alkanoyloxymethyl esters” (Beacon Laboratories, Inc., priority 2000, dated 2004), this text covers IC50 for three molecules.

pIC50: −log10 of the molar value.

In test [1] the test system is PC-3 prostate cancer cells. The test can be described thus: EDR anti-proliferation assay (3H-thymidine incorporation, soft agar) against PC-3 prostate cancer cells. It is filed as cell-based. The conditions noted are these: Homo sapiens; PC-3 cells in soft agar, five days incubation, 3H-TdR incorporation. (In general: Dividing cells build labelled thymidine or BrdU into new DNA.)
Text: The PC-3 cell line was maintained in RPMI supplemented with 10% fetal calf serum and antibiotics. […] Cells were suspended in 0.12% soft agar in complete medium and plated (2,000 cells per well, as determined by preliminary experiments) in different drug concentrations onto a 0.4% agarose underlayer in 24-well plates. Plating cells on agarose underlayers supports the proliferation only of the transformed cells, ensuring that the growth signal stems from the malignant component of the tumor.
All compounds were dissolved in DMSO to 200× stock solutions. Stock solutions were diluted to 20× working solutions using the tissue culture medium, serially diluted and added to the 24-well plates. […] No significant changes in pH of the culture medium were observed under the above conditions. Diluent control wells contained PC3 cells treated with DMSO, at the dilutions used for appropriate drug treatment. All experimental points were represented by two separate wells (duplicates). Positive controls were determined using at least two wells treated with an extremely high dose of cisplatin, an anti-cancer agent. Four wells containing tumor cells that were not treated with drugs served as negative controls in each experiment.
Cells were incubated with drugs under standard culture conditions for five days. Cultures were pulsed with tritiated thymidine (^3H-TdR, New Life Science Products, Boston, Mass.) at 5 μCi per well for the last 48 hours of the culture period. Cell culture plates were then heated to 90° C. to liquefy the agarose, and cells were harvested onto glass fiber filters, which were then placed into counting vials containing liquid scintillation fluid. The radioactivity trapped on the filters was counted with a Beckman scintillation counter. The fraction of surviving cells was determined by comparing ^3H-TdR incorporation in treated (experimental points) and untreated (negative control) wells. […] IC50 values were determined using the approximated sigmoidal curves and expressed as μM.

Test [2] has as its target histone deacetylase isolated from rat liver. Briefly: Histone deacetylase inhibition assay with fluorescent substrate MAL, HPLC determination. The conditions noted are these: 37° C. 90 minutes, IC50 from five dilutions, read-out: HDAC. It is filed as biochemical.
Experimental: The inhibition of histone deacetylase was determined according to methods generally described by Hoffmann et al., Nucleic Acids Res. 27:2057-8 (1999). The histone deacetylase was isolated from rat liver as previously described by M. Tung. The compounds tested were initially dissolved in either ethanol or in DMSO to provide working stock solutions.
The assay was performed in a final volume of 120 μL total, consisting of 100 μL of 15 μM tris-HCl buffer (pH 7.9) also containing 0.25 μM EDTA, 10 μM NaCl, 10% glycerol, 10 μM mercaptoethanol and the enzyme. The assay was initiated upon the addition of 10 ml of one of the compounds being tested, followed by the addition of the fluorescence-labeled lysine substrate to each assay tube in an ice bath for 15 minutes. The tubes were transferred to a water bath at 37° C. for an additional 90 minutes.
The fluorescent substrate described by Hoffmann was modified to increase the precision and accuracy by the addition of an internal standard for the HPLC determination. The synthetic substrate, MAL is N-(4-methyl-7-coumarinyl)-N-α(tert-butyloxy-carbonyl)-N-Ω-acetyllysineamide.
An initial assay was performed to determine the range of activity of each compound. […] All values are the result of two or more experiments.

With `CCC(=O)OCOC(=O)CC` [POMP, propionoyloxymethyl propionate], the values for the pIC50 in test [1] and in test [2] were 4.52 and 3.23, respectively.

As for `CCCC(=O)O` [butyric acid], the pIC50 in test [1] is under 2.70; in test [2] it was 2.35.

For `CC(/C=C/C(=O)NO)=C\[C@@H](C)C(=O)c1ccc(N(C)C)cc1` [trichostatin], the pIC50 in test [1] was 8.30.
